According to paper PMC5421785, “Citrullination only infrequently impacts peptide binding to HLA class II MHC” (PLoS ONE, 2017):
Read-outs that look alike come from different tables or passages of the source. Square brackets hold non-standard residues; d marks the D form. Ends that are not written are not given here. Peptide text beside a SMILES is read from it. Cit = NC(=O)NCCC[C@H](N)C(=O)O

Experiments:
[1] = target: T1, HLA-DRB1*01:01 (Homo sapiens, UniProt P01903+P01911, A100R/D57E/F55L/F60I/F76Y/I96L/L162R/M171V/P40L/Q125E/R42F/V115G/Y59C); test: HLA class II peptide binding, inhibition of radiolabeled peptide binding to purified MHC
T1 construct: EBV transformed homozygous cell lines were used as sources of MHC molecules; endogenous in cells; host or cells: EBV transformed homozygous cell lines

[2] = target: T2, HLA-DRB1*04:01 (Homo sapiens, UniProt P01903+P01911, A100K/A169T/F76Y/I96L/K127E/L162R/M171V/N62H/P40V/Q125Y/R42H/S133A/S149N/S66Y/V115G/V209L/W38E); test: as above
T2 construct: EBV transformed homozygous cell lines were used as sources of MHC molecules; endogenous in cells; host or cells: EBV transformed homozygous cell lines

[3] = citrullinated 15-mer (X), purified MHC, inhibition of radiolabeled peptide binding, dash = IC50 >40,000 nM, read-out: DRB1*01:01 binding capacity, Cit peptide (IC50 nM)
[4] = citrullinated 15-mer (X), purified MHC, inhibition of radiolabeled peptide binding, dash = IC50 >40,000 nM, read-out: DRB1*04:01 binding capacity, Cit peptide (IC50 nM)
[5] = wild-type (unmodified Arg) 15-mer peptide, purified HLA-DRB1*01:01, read-out: DRB1*01:01 binding capacity, WT peptide (IC50 nM)
[6] = wild-type (unmodified Arg) 15-mer peptide, purified HLA-DRB1*04:01, read-out: DRB1*04:01 binding capacity, WT peptide (IC50 nM)
[7] = read-out: DRB1*01:01 binding capacity, WT peptide (IC50 nM)
[8] = read-out: DRB1*04:01 binding capacity, WT peptide (IC50 nM)

Row | Compound | IC50 [1, 5] [nM] | IC50 [2, 6] [nM] | IC50 [1, 7] [nM] | IC50 [2, 8] [nM] | further results
1 | CC(C)C[C@H](NC(=O)[C@H](C)NC(=O)[C@H](CO)NC(=O)CNC(=O)[C@H](CC(C)C)NC(=O)[C@H](CO)NC(=O)[C@H](Cc1ccc(O)cc1)NC(=O)[C@@H](NC(=O)[C@@H](N)CCCNC(N)=O)[C@@H](C)O)C(=O)N[C@@H](CCCNC(=N)N)C(=O)N1CCC[C@H]1C(=O)N[C@@H](CO)C(=O)N[C@H](C(=O)N[C@@H](CO)C(=O)N[C@@H](CCCNC(=N)N)C(=O)O)[C@@H](C)O [XTYSLGSALRPSTSR] (H-[Cit]TYSLGSALRPSTSR-OH) |  |  |  |  | IC50 [1, 3]: 53 nM; IC50 [2, 4]: 4770 nM
2 | CC(C)C[C@H](NC(=O)[C@H](CCCNC(=N)N)NC(=O)[C@@H](NC(=O)[C@H](C)NC(=O)[C@H](CO)NC(=O)[C@H](CO)NC(=O)[C@H](CCCNC(=N)N)NC(=O)[C@@H](NC(=O)[C@H](C)NC(=O)[C@@H](N)Cc1ccc(O)cc1)[C@@H](C)O)C(C)C)C(=O)N[C@@H](CCCNC(N)=O)C(=O)N[C@@H](CO)C(=O)N[C@@H](CO)C(=O)N[C@H](C(=O)N1CCC[C@H]1C(=O)O)C(C)C [YATRSSAVRLXSSVP] (H-YATRSSAVRL[Cit]SSVP-OH) |  |  |  |  | IC50 [1, 3]: 31 nM; IC50 [2, 4]: 338 nM
3 | CC(C)C[C@H](NC(=O)[C@H](CCCNC(N)=O)NC(=O)[C@@H](NC(=O)[C@H](C)NC(=O)[C@H](CO)NC(=O)[C@H](CO)NC(=O)[C@H](CCCNC(=N)N)NC(=O)[C@@H](NC(=O)[C@H](C)NC(=O)[C@@H](N)Cc1ccc(O)cc1)[C@@H](C)O)C(C)C)C(=O)N[C@@H](CCCNC(=N)N)C(=O)N[C@@H](CO)C(=O)N[C@@H](CO)C(=O)N[C@H](C(=O)N1CCC[C@H]1C(=O)O)C(C)C [YATRSSAVXLRSSVP] (H-YATRSSAV[Cit]LRSSVP-OH) |  |  |  |  | IC50 [1, 3]: 41 nM; IC50 [2, 4]: 3220 nM
4 | CC(C)C[C@H](NC(=O)[C@H](CCCNC(=N)N)NC(=O)[C@@H](NC(=O)[C@H](C)NC(=O)[C@H](CO)NC(=O)[C@H](CO)NC(=O)[C@H](CCCNC(N)=O)NC(=O)[C@@H](NC(=O)[C@H](C)NC(=O)[C@@H](N)Cc1ccc(O)cc1)[C@@H](C)O)C(C)C)C(=O)N[C@@H](CCCNC(=N)N)C(=O)N[C@@H](CO)C(=O)N[C@@H](CO)C(=O)N[C@H](C(=O)N1CCC[C@H]1C(=O)O)C(C)C [YATXSSAVRLRSSVP] (H-YAT[Cit]SSAVRLRSSVP-OH) |  |  |  |  | IC50 [1, 3]: 12 nM; IC50 [2, 4]: 3720 nM
5 | CC(C)C[C@H](NC(=O)[C@H](CC(=O)O)NC(=O)[C@H](C)NC(=O)[C@H](Cc1ccccc1)NC(=O)[C@H](CCCCN)NC(=O)[C@H](CO)NC(=O)[C@H](CCCCN)NC(=O)[C@@H](N)Cc1ccc(O)cc1)C(=O)N[C@@H](CO)C(=O)N[C@@H](CCC(=O)O)C(=O)N[C@@H](C)C(=O)N[C@@H](C)C(=O)N[C@@H](CC(N)=O)C(=O)N[C@@H](CCCNC(N)=O)C(=O)N[C@@H](CC(N)=O)C(=O)O [YKSKFADLSEAANXN] (H-YKSKFADLSEAAN[Cit]N-OH) |  |  |  |  | IC50 [1, 3]: 292 nM; IC50 [2, 4]: 1110 nM
6 | CSCC[C@H](NC(=O)[C@H](CCCNC(=N)N)NC(=O)[C@H](CCCNC(=N)N)NC(=O)[C@@H](N)Cc1ccc(O)cc1)C(=O)N[C@@H](Cc1ccccc1)C(=O)NCC(=O)NCC(=O)N1CCC[C@H]1C(=O)NCC(=O)N[C@H](C(=O)N[C@@H](C)C(=O)N[C@@H](CO)C(=O)N[C@@H](CCCNC(N)=O)C(=O)N1CCC[C@H]1C(=O)N[C@@H](CO)C(=O)O)[C@@H](C)O [YRRMFGGPGTASXPS] (H-YRRMFGGPGTAS[Cit]PS-OH) |  |  |  |  | IC50 [1, 3]: 334 nM; IC50 [2, 4]: 6870 nM
7 | CSCC[C@H](NC(=O)[C@H](CCCNC(N)=O)NC(=O)[C@H](CCCNC(=N)N)NC(=O)[C@@H](N)Cc1ccc(O)cc1)C(=O)N[C@@H](Cc1ccccc1)C(=O)NCC(=O)NCC(=O)N1CCC[C@H]1C(=O)NCC(=O)N[C@H](C(=O)N[C@@H](C)C(=O)N[C@@H](CO)C(=O)N[C@@H](CCCNC(=N)N)C(=O)N1CCC[C@H]1C(=O)N[C@@H](CO)C(=O)O)[C@@H](C)O [YRXMFGGPGTASRPS] (H-YR[Cit]MFGGPGTASRPS-OH) |  |  |  |  | IC50 [1, 3]: 512 nM; IC50 [2, 4]: 15800 nM
8 | CSCC[C@H](NC(=O)[C@H](CCCNC(=N)N)NC(=O)[C@H](CCCNC(N)=O)NC(=O)[C@@H](N)Cc1ccc(O)cc1)C(=O)N[C@@H](Cc1ccccc1)C(=O)NCC(=O)NCC(=O)N1CCC[C@H]1C(=O)NCC(=O)N[C@H](C(=O)N[C@@H](C)C(=O)N[C@@H](CO)C(=O)N[C@@H](CCCNC(=N)N)C(=O)N1CCC[C@H]1C(=O)N[C@@H](CO)C(=O)O)[C@@H](C)O [YXRMFGGPGTASRPS] (H-Y[Cit]RMFGGPGTASRPS-OH) |  |  |  |  | IC50 [1, 3]: 252 nM; IC50 [2, 4]: 27400 nM
9 | AAGVKGDRGETGAVG [Collagen 1051 WT] | 1150 | 25200 |  |  | 
10 | AGEPGERGLKGHRGF [Collagen 1121 WT] | 85 | > 40000 |  |  | 
11 | AINTEFKNTRTNEKV [Vimentin 91 WT] |  |  | 1330 | 1340 | 
12 | ARGAQGPPGATGFPG [Collagen 886 WT] | 32200 | > 40000 |  |  | 
13 | ASRPSSSRSYVTTST [Vimentin 21 WT] |  |  | 7580 | 1030 | 
14 | DGLAGPKGAPGERGP [Collagen 521 WT] | 2240 | 36900 |  |  | 
15 | DGPKGARGDSGPPGR [Collagen 926 WT] | 26700 | 27400 |  |  | 
16 | DIMRLREKLQEEMLQ [Vimentin 181 WT] |  |  | 852 | > 40000 | 
17 | DNLAEDIMRLREKLQ [Vimentin 176 WT] |  |  | 4570 | > 40000 | 

Row | Compound | IC50 [1, 5] [nM] | IC50 [2, 6] [nM] | IC50 [1, 7] [nM] | IC50 [2, 8] [nM] | further results
18 | DRGDVGEKGPEGAPG [Collagen 766 WT] | 729 | 21600 |  |  | 
19 | EEEMRELRRQVDQLT [Vimentin 151 WT] |  |  | 468 | 4350 | 
20 | EEMLQREEAENTLQS [Vimentin 191 WT] |  |  | 704 | 11900 | 
21 | ELRRQVDQLTNDKAR [Vimentin 156 WT] |  |  | 568 | 5240 | 
22 | ENGSPGPMGPRGLPG [Collagen 316 WT] | > 40000 | > 40000 |  |  | 
23 | ERGFPGLPGPSGEPG [Collagen 991 WT] | 1280 | > 40000 |  |  | 
24 | ERGLKGHRGFTGLQG [Collagen 1126 WT] | 29 | > 40000 |  |  | 
25 | ERGRTGPAGAAGARG [Collagen 331 WT] | 1610 | > 40000 |  |  | 
26 | FKNTRTNEKVELQEL [Vimentin 96 WT] |  |  | 4450 | 1790 | 
27 | FRQDVDNASLARLDL [Vimentin 206 WT] |  |  | 5260 | 144 | 
28 | FSLADAINTEFKNTR [Vimentin 86 WT] |  |  | 68 | 12000 | 
29 | GADGPPGRDGAAGVK [Collagen 1041 WT] | > 40000 | > 40000 |  |  | 
30 | GAEGPPGPQGLAGQR [Collagen 966 WT] | > 40000 | > 40000 |  |  | 
31 | GAQGLQGPRGLPGTP [Collagen 711 WT] | 352 | > 40000 |  |  | 
32 | GDRGEAGAQGPMGPS [Collagen 1086 WT] | 9550 | > 40000 |  |  | 
33 | GGPGTASRPSSSRSY [Vimentin 16 WT] |  |  | 5230 | 39500 | 
34 | GHRGFTGLQGLPGPP [Collagen 1131 WT] | 0.77 | 335 |  |  | 

Now from value to compound, other results behind:

Row | IC50 [1, 5] [nM] | IC50 [2, 6] [nM] | IC50 [1, 7] [nM] | IC50 [2, 8] [nM] | Compound | further results
35 |  |  | > 40000 | > 40000 | AANRNNDALRQAKQE [Vimentin 301 WT] | 
36 |  |  | 4500 | 13900 | ADLSEAANRNNDALR [Vimentin 296 WT] | 
37 | 625 | 11500 |  |  | ANYQDTIGRLQDEIQ [Vimentin 356 WT] | 
38 |  |  | 6310 | 17200 | ARLDLERKVESLQEE [Vimentin 216 WT] | 
39 | 39900 | 18000 |  |  | DALKGTNESLERQMR [Vimentin 331 WT] | 
40 |  |  | 7850 | 18800 | DNASLARLDLERKVE [Vimentin 211 WT] | 
41 |  |  | 10 | 6370 | DVRQQYESVAAKNLQ [Vimentin 271 WT] | 
42 | 52 | 3520 |  |  | EIATYRKLLEGEESR [Vimentin 396 WT] | 
43 |  |  | 103 | > 40000 | ERKVESLQEEIAFLK [Vimentin 221 WT] | 
44 | 11100 | 912 |  |  | ERQMREMEENFAVEA [Vimentin 341 WT] | 
45 | 611 | 564 |  |  | FAVEAANYQDTIGRL [Vimentin 351 WT] | 
46 | 527 | 7570 |  |  | GEESRISLPLPNFSS [Vimentin 406 WT] | 
